Literature values, collected in patent US4292313A, “LRF Antagonists” (The Salk Institute for Biological Studies, priority 1980, dated 1981).
[ ]: non-standard residue; d: D form. pGlu = O=C1CC[C@@H](C(=O)O)N1

Test system: pituitary gland
Conditions: versus 6-Gly des-His2 analog

## [pGlu]WSY[dA]LRPG-NH2
  Potency as inhibitor of release of gonadotropins relative to the same peptide with Gly in the 6-position: 3 times
